Source: BigSolDB 2.1

O=C(O)c1ccc[nH]c1=O
solubility (mole fraction)
Conditions	in acetone	in acetonitrile	in ethanol	in ethyl acetate	in isopropanol	in methanol	in n-butanol	in n-butyl acetate	in sec-butanol	in water
293.15 K	0.00135	0.000837	0.000992	0.000248	0.000278	0.00097	0.000215	5.2e-05	0.000138	0.000796
303.15 K	0.00199	0.00116	0.00134	0.000365	0.000401	0.00146	0.00031	7.5e-05	0.000199	0.00111
308.15 K	0.00233	–	–	–	–	–	–	–	–	–
313.15 K	0.00277	0.00169	0.00177	0.000559	0.000565	0.0021	0.000437	0.000105	0.000283	0.00159
318.15 K	0.0033	0.0019	0.00218	0.000661	0.000595	0.00253	0.000515	0.000124	0.000331	0.00195
323.15 K	0.00374	0.00218	0.0025	0.000795	0.000772	0.00297	0.000603	0.000146	0.000384	0.00237
333.15 K	–	0.00282	0.00351	0.00124	0.00106	0.00378	0.000817	0.000197	0.000525	0.00326
